In US7919508B2, “3-piperidinylisochroman-5-ols as dopamine agonists” (Aventis Pharmaceuticals Inc., priority 2004, dated 2011):
Structures can show the parent of a compound that is named as a salt. Where two headings read alike, the source gives them in different places.

Columns and labels:
[1] = target: human dopamine D2Long (D2L) receptors (Homo sapiens, UniProt P14416)
[2] = target: T1, human dopamine D1 receptor (Homo sapiens, UniProt P21728); assay: [3H]-SCH-23390 binding to cloned human dopamine D1 receptors (CHO cell membranes)
T1 construct: A 1.4 Kb Hind III to Xho I fragment was subcloned into the vector pMMLV; expressed in transfected cells; host or cells: CHO cells, clone CHO-D1M#9 (plasmid pHD1MMLV), membranes
T1 sequence (P21728 whole entry, the tested form may be a part): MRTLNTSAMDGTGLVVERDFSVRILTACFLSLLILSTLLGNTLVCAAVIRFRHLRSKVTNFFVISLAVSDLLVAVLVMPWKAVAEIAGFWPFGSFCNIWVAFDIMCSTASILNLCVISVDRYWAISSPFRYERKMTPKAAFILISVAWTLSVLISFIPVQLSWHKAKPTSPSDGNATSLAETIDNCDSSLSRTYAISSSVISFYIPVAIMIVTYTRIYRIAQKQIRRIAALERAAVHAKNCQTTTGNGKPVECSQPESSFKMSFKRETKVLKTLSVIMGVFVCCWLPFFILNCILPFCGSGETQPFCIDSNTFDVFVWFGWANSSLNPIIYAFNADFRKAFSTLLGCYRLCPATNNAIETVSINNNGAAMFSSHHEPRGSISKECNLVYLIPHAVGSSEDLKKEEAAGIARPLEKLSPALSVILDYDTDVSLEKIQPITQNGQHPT

D1 receptor = target: T2, D1 receptor (Homo sapiens, UniProt P21728); assay: D1 Activation Adenylyl Cyclase Assay (cAMP FlashPlate, D1 transfected CHO cell line); type: cell-based
T2 construct: expressed in transfected cells; host or cells: D1 transfected CHO cell line
T2 sequence (P21728 whole entry): as the sequence (P21728 whole entry, the tested form may be a part) above
Outline: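 D1-transfected CHO cells (50,000/well) were exposed to compound 1/10 serial dilutions for 8 min at RT; cAMP measured by competitive 125I-cAMP FlashPlate against a standard curve. Response normalised between basal and saturating D1 agonist; EC50 at half-maximal stimulation, plateau reported as % maximal dopamine stimulation.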

[3] = competitive binding, [3H]-SCH-23390, cloned human D1 in CHO membranes, read-out: D1 affinity Ki
[4] = agonist activity at the D1 receptor, adenylate cyclase assay, D1 transfected CHO cell line, read-out: D1 EC50

human dopamine D2Long (D2L) receptors, sequence (P14416 whole entry): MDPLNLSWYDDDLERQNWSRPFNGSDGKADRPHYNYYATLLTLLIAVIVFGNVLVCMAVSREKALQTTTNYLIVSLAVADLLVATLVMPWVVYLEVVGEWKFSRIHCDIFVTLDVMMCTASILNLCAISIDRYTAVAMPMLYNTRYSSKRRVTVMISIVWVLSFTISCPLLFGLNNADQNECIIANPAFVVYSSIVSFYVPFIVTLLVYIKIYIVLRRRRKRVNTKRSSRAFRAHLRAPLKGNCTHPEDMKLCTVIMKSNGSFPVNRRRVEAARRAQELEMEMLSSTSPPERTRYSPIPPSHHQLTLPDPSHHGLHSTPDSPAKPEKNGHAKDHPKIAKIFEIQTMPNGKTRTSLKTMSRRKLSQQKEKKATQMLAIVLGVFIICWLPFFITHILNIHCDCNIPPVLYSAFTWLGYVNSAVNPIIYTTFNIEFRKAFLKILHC

| Ki [1] [nM] | Ki [2, 3] [nM] | EC50 (D1 receptor; [4]) [nM] | SMILES | Ki [2] [nM] | EC50 (D1 receptor) [nM] |
| --- | --- | --- | --- | --- | --- |
| 40 | 36 | 80 | Cc1ccc2c(c1O)C[C@@H](C1CCN(Cc3cc(C(F)(F)F)ccc3Cl)CC1)O[C@H]2CN [Example 77, (1R,3S)-1-Aminomethyl-3-[1-(2-chloro-5-trifluoromethyl-benzyl)-piperidin-4-yl]-6-methyl-isochroman-5-ol dihydrochloride] |  |  |
| 197 | 14 | 2 | Cc1ccc2c(c1O)C[C@@H](C1CCN(Cc3ccc(Cl)c(C(F)(F)F)c3)CC1)O[C@H]2CN [Example 78, (1R,3S)-1-Aminomethyl-3-[1-(4-chloro-3-trifluoromethyl-benzyl)-piperidin-4-yl]-6-methyl-isochroman-5-ol dihydrochloride] |  |  |
| 389 | 25.6 | 16 | Cc1ccc2c(c1O)C[C@@H](C1CCN(Cc3cc4ccccc4o3)CC1)O[C@H]2CN [Example 85, (1R,3S)-1-Aminomethyl-3-(1-benzofuran-2-ylmethyl-piperidin-4-yl)-6-methyl-isochroman-5-ol dihydrochloride] |  |  |
| 97.6 | 39.9 | 77 | Cc1ccc2c(c1O)C[C@@H](C1CCN(Cc3sc4ccccc4c3C)CC1)O[C@H]2CN [Example 86, (1R,3S)-1-Aminomethyl-6-methyl-3-[1-(3-methyl-benzo[b]thiophen-2-ylmethyl)-piperidin-4-yl]-isochroman-5-ol dihydrochloride] |  |  |
| 23.8 | 23.9 | 27 | Cc1ccc2c(c1O)C[C@@H](C1CCN(Cc3csc4ccccc34)CC1)O[C@H]2CN [Example 87, (1R,3S)-1-Aminomethyl-6-methyl-3-(1-benzo[b]thiophen-3-ylmethyl-piperidin-4-yl)-isochroman-5-ol dihydrochloride] |  |  |
| 109 | 66.5 | 29 | Cc1ccc2c(c1O)C[C@@H](C1CCN(Cc3cc4ccccc4n3C)CC1)O[C@H]2CN [Example 88, (1R,3S)-1-Aminomethyl-6-methyl-3-[1-(1-methyl-1H-indol-2-ylmethyl)-piperidin-4-yl]-isochroman-5-ol dihydrochloride] |  |  |
| 199 | 18.9 | 8 | Cc1ccc2c(c1O)C[C@@H](C1CCN(Cc3c[nH]c4ccccc34)CC1)O[C@H]2CN [Example 89, (1R,3S)-1-Aminomethyl-3-[1-(1H-indol-3-ylmethyl)-piperidin-4-yl]-6-methyl-isochroman-5-ol dihydrochloride] |  |  |
| 2.4 | 42.3 | 9 | Cc1ccc2c(c1O)C[C@@H](C1CCN(Cc3cn(C)c4ccccc34)CC1)O[C@H]2CN [Example 90, (1R,3S)-1-Aminomethyl-6-methyl-3-[1-(1-methyl-1H-indol-3-ylmethyl)-piperidin-4-yl]-isochroman-5-ol trihydrochloride] |  |  |
| 43.4 | 40.7 | 12 | Cc1ccc2c(c1O)C[C@@H](C1CCN(Cc3cn(Cc4ccccc4)c4ccccc34)CC1)O[C@H]2CN [Example 91, (1R,3S)-1-Aminomethyl-3-[1-(1-benzyl-1H-indol-3-ylmethyl)-piperidin-4-yl]-6-methyl-isochroman-5-ol dihydrochloride] |  |  |
| 93.4 | 29.2 | 0.98 | Cc1ccc2c(c1O)C[C@@H](C1CCN(Cc3nc4ccccc4n3C)CC1)O[C@H]2CN [Example 92, (1R,3S)-1-Aminomethyl-6-methyl-3-[1-(1-methyl-1H-benzoimidazol-2-ylmethyl)-piperidin-4-yl]-isochroman-5-ol trihydrochloride] |  |  |
| 278 | 45 | 29 | Cc1ccc2c(c1O)C[C@@H](C1CCN(CCc3ccccc3)CC1)O[C@H]2CN [Example 106, (1R,3S)-1-Aminomethyl-6-methyl-3-(1-phenethyl-piperidin-4-yl)-isochroman-5-ol dihydrobromide] |  |  |
| ≥ 10000 | 926 | 140 | Cc1ccc2c(c1O)C[C@@H](C1CCN(CCc3cccc(Cl)c3)CC1)O[C@H]2CN [Example 107, (1R,3S)-1-Aminomethyl-3-{1-[2-(3-chloro-phenyl)-ethyl]-piperidin-4-yl}-6-methyl-isochroman-5-ol dihydrobromide] |  |  |

Continued, compound first:

| SMILES | Ki [1] [nM] | Ki [2, 3] [nM] | EC50 (D1 receptor; [4]) [nM] | Ki [2] [nM] | EC50 (D1 receptor) [nM] |
| --- | --- | --- | --- | --- | --- |
| Cc1ccc2c(c1O)C[C@@H](C1CCN(Cc3cc(C(F)(F)F)cc(C(F)(F)F)c3)CC1)O[C@H]2CN [Example 75, (1R,3S)-1-Aminomethyl-3-[1-(3,5-bis-trifluoromethyl-benzyl)-piperidin-4-yl]-6-methyl-isochroman-5-ol dihydrochloride] | 120 | 42 | 220 |  |  |
| Cc1ccc2c(c1O)C[C@@H](C1CCN(Cc3cc(C(F)(F)F)ccc3C(F)(F)F)CC1)O[C@H]2CN [Example 76, (1R,3S)-1-Aminomethyl-3-[1-(2,5-bis-trifluoromethyl-benzyl)-piperidin-4-yl]-6-methyl-isochroman-5-ol dihydrochloride] | 41 | 92 | 580 |  |  |
| CNC[C@@H]1O[C@H](C2CCN(CCc3ccccc3)CC2)Cc2c1ccc(C)c2O [Example 94, (1R,3S)-6-Methyl-1-methylaminomethyl-3-(1-phenethyl-piperidin-4-yl)-isochroman-5-ol dihydrochloride] | 285 | 113 | 35 |  |  |
| CNC[C@@H]1O[C@H](C2CCN(Cc3ccc(F)cc3)CC2)Cc2c1ccc(C)c2O [Example 95, 1R,3S)-3-[1-(4-Fluoro-benzyl)-piperidin-4-yl]-6-methyl-1-methylaminomethyl-isochroman-5-ol dihydrochloride] | 456 | 121 | 250 |  |  |
| CNC[C@@H]1O[C@H](C2CCN(Cc3ccc(C(C)C)cc3)CC2)Cc2c1ccc(C)c2O [Example 97, (1R,3S)-3-[1-(4-Isopropyl-benzyl)-piperidin-4-yl]-6-methyl-1-methylaminomethyl-isochroman-5-ol dihydrochloride] | 357 | 53.1 | 66 |  |  |
| CNC[C@@H]1O[C@H](C2CCN(Cc3ccc(-c4ccccc4)cc3)CC2)Cc2c1ccc(C)c2O [Example 98, (1R,3S)-3-(1-Biphenyl-4-ylmethyl-piperidin-4-yl)-6-methyl-1-methylaminomethyl-isochroman-5-ol dihydrochloride] | 239 | 60.3 | 15 |  |  |
| CNC[C@@H]1O[C@H](C2CCN(Cc3ccc(OC)cc3)CC2)Cc2c1ccc(C)c2O [Example 99, (1R,3S)-3-[1-(4-Methoxy-benzyl)-piperidin-4-yl]-6-methyl-1-methylaminomethyl-isochroman-5-ol dihydrochloride] | 307 | 53.1 | 22 |  |  |
| CNC[C@@H]1O[C@H](C2CCN(Cc3ccc(F)c(F)c3)CC2)Cc2c1ccc(C)c2O [Example 100, (1R,3S)-3-[1-(3,4-Difluoro-benzyl)-piperidin-4-yl]-6-methyl-1-methylaminomethyl-isochroman-5-ol dihydrochloride] | ≥ 100000 | 43.1 | 60 |  |  |
| CNC[C@@H]1O[C@H](C2CCN(Cc3ccc(C)cc3)CC2)Cc2c1ccc(C)c2O [Example 101, (1R,3S)-6-Methyl-1-methylaminomethyl-3-[1-(4-methyl-benzyl)-piperidin-4-yl]-isochroman-5-ol dihydrochloride] | 322 | 92.2 | 33 |  |  |
| Cc1ccc2c(c1O)C[C@@H](C1CCN(CCC(C)c3noc4cc(F)ccc34)CC1)O[C@H]2CN (stereo partly drawn) [Example 104, (1R,3S)-1-Aminomethyl-3-{1-[3-(6-fluoro-benzo[d]isoxazol-3-yl)butyl]piperidin-4-yl}-6-methylisochroman-5-ol dihydrochloride] | 122 | 70 | 116 |  |  |
| Cc1ccc2c(c1O)C[C@@H](C1CCN(C/C=C/c3ccccc3)CC1)O[C@H]2CN [Example 109, (1R,3S)-1-Aminomethyl-6-methyl-3-[1-(3-phenyl-allyl)-piperidin-4-yl]-isochroman-5-ol dihydrobromide] | 212 | 108 | 102 |  |  |
| Cc1ccc2c(c1O)C[C@@H](C1CCN(C(=O)OC(C)C)CC1)O[C@H]2CN [Example 111, 4-((1R,3S)-1-Aminomethyl-5-hydroxy-6-methyl-isochroman-3-yl)-piperidine-1-carboxylic acid isopropyl ester hydrochloride] | 794 | 165 | 49 |  |  |
| COC(=O)N1CCC([C@@H]2Cc3c(ccc(C)c3O)[C@H](CN)O2)CC1 [Example 112, 4-((1R,3S)-1-Aminomethyl-5-hydroxy-6-methyl-isochroman-3-yl)-piperidine-1-carboxylic acid methyl ester hydrochloride] | ≥ 100000 | 101 | 0.6 |  |  |
| Cc1ccc2c(c1O)C[C@@H](C1CCN(C(=O)Oc3ccccc3)CC1)O[C@H]2CN [Example 113, 4-((1R,3S)-1-Aminomethyl-5-hydroxy-6-methyl-isochroman-3-yl)-piperidine-1-carboxylic acid phenyl ester hydrochloride] | ≥ 100000 |  |  | 30.5 | 4.2 |
| Cc1ccc(OC(=O)N2CCC([C@@H]3Cc4c(ccc(C)c4O)[C@H](CN)O3)CC2)cc1 [Example 114, 4-((1R,3S)-1-Aminomethyl-5-hydroxy-6-methyl-isochroman-3-yl)-piperidine-1-carboxylic acid p-tolyl ester hydrochloride] | 511 |  |  | 64.6 | 0.85 |
